Experimental data as given in patent US20130217664A1, “NOVEL COMPOUNDS USEFUL FOR THE TREATMENT OF DEGENERATIVE AND INFLAMMATORY DISEASES” (priority 2012, published 2013).
Read-outs that look alike come from different tables or passages of the source.

Assays:
[1] = target: T1, human JAK1 (Homo sapiens, UniProt P23458); experiment: JAK1 inhibition assay (polyGT substrate / Ulight-JAK1 peptide); format: biochemical; details: recombinant human JAK1 catalytic domain; polyGT or Ulight-JAK1 peptide assay
T1 construct: catalytic domain, amino acids 866-1154; catalog number PV4774; purchased Invitrogen PV4774
Summary of the method: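 Signal scaled between vehicle and 10 μM staurosporine. Radiometric polyGT reactions ran 45 min at 30 °C, counted after phosphoric-acid stop. Ulight peptide reactions ran 60 min at room temperature, fluorescence read after adding Eu-PT66 detection mix with EDTA.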

[2] = test system: pSTAT1(2)-luciferase reporter in HeLa cells triggered with human OSM; experiment: JAK-STAT signalling assay; format: cell-based; details: read-out: JAK-STAT IC50
Summary of the method: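 Compound added 60 min before 33 ng/mL (final) human OSM; after overnight stimulation at 37 °C, luciferase signal from a transiently transfected pSTAT1(2) reporter in HeLa cells was read, with LacZ as internal control. EC50 derived from percent-inhibition dose-response curves.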

[3] = target: T2, human TYK2 (Homo sapiens, UniProt P29597); experiment: TYK2 inhibition assay; format: biochemical; details: recombinant human TYK2 catalytic domain, polyGT substrate
T2 construct: catalytic domain (amino acids 871-1187; catalog number 08-147); purchased Carna Biosciences 08-147
T2 sequence (P29597 871-1187): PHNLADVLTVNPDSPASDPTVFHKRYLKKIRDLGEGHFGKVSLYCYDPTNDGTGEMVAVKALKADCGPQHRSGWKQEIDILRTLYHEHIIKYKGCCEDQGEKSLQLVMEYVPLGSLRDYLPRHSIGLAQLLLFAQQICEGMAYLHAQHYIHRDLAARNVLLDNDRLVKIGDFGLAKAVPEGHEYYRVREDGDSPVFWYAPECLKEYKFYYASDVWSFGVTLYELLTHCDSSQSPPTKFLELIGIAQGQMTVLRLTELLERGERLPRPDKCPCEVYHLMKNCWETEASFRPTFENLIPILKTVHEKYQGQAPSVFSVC
Summary of the method: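 Radiometric kinase reaction run 90 min at 30 °C, stopped with phosphoric acid, washed and scintillation-counted.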

[4] = target: T3, human JAK3 (Homo sapiens, UniProt P52333); experiment: JAK3 inhibition assay; format: biochemical; details: recombinant human JAK3 catalytic domain; polyGT substrate
T3 construct: catalytic domain (amino acids 781-1124; catalog number PV3855); purchased Invitrogen PV3855
Summary of the method: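 Radiometric kinase assay: 0.5 ng JAK3 with 2.5 μg polyGT in Tris pH 7.5/MgCl2 buffer, 1 μM ATP plus 0.25 μCi 33P-γ-ATP, 1% DMSO, 45 min at 30 °C, stopped with phosphoric acid.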

[5] = Homo sapiens, HeLa, HeLa cells, pSTAT1(2)-luciferase reporter, human OSM 33 ng/mL
[6] = HeLa cells, pSTAT1(2)-luciferase reporter, human OSM 33 ng/mL

T3 sequence (P52333 781-1124): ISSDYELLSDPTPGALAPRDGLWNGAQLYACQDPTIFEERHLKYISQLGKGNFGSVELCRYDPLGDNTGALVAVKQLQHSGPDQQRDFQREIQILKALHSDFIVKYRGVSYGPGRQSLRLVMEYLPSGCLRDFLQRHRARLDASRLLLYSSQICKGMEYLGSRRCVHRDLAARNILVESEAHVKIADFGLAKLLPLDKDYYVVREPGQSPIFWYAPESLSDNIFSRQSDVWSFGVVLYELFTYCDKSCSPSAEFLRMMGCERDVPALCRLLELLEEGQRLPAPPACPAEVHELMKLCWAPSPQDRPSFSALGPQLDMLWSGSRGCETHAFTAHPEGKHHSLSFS
T1 sequence (P23458 866-1154): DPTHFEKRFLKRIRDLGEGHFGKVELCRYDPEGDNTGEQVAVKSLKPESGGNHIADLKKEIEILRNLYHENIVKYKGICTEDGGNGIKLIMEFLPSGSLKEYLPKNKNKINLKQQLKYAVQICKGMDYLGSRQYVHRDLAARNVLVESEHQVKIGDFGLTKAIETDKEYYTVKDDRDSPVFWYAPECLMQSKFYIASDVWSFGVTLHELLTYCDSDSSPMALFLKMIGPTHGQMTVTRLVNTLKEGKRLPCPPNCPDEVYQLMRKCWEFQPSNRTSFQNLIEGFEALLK

IC50 [1] | IC50 [2, 5] | IC50 [3] | IC50 [4] | IC50 [2, 6] | SMILES | IC50 ([2]; Homo sapiens, HeLa)
0.01 to 100 nM | 1 to 500 nM | 0.01 to 100 nM | 0.01 to 100 nM | – | CCc1cc(C2=CCN(S(=O)(=O)C(C)C)CC2)ccc1N(C)c1cc2c(cn1)ncn2C [Compound 246, N-(2-ethyl-4-(1-(isopropylsulfonyl)-1,2,3,6-tetrahydropyridin-4-yl)phenyl)-N,1-dimethyl-1H-imidazo[4,5-c]pyridin-6-amine] | –
0.01 to 100 nM | > 1000 nM | 0.01 to 100 nM | 101 to 500 nM | – | CCc1cc(C2=CCN(C(=O)NC3COC3)CC2)ccc1N(C)c1cc2c(cn1)ncn2C [Compound 215] | –
0.01 to 100 nM | – | 0.01 to 100 nM | 101 to 500 nM | 501 to 1000 nM | CCc1cc(C2CCN(C(=O)CC#N)CC2)ccc1N(C)c1cc2c(cn1)ncn2C [Compound 224, 3-(4-(3-ethyl-4-(methyl(1-methyl-1H-imidazo[4,5-c]pyridin-6-yl)amino)phenyl)piperidin-1-yl)-3-oxopropanenitrile] | –
0.01 to 100 nM | 1 to 500 nM | 101 to 500 nM | 101 to 500 nM | – | CCc1cc(-c2cnn(Cc3ccc(Cl)cc3)c2)ccc1N(C)c1cc2c(cn1)ncn2C [Compound 239, N-(4-(1-(4-chlorobenzyl)-1H-pyrazol-4-yl)-2-ethylphenyl)-N,1-dimethyl-1H-imidazo[4,5-c]pyridin-6-amine] | –
501 to 1000 nM | > 1000 nM | > 1000 nM | > 1000 nM | – | CN(c1cc2c(cn1)ncn2C)c1ccc(C#N)cc1F [Compound 267, 3-fluoro-4-(methyl(1-methyl-1H-imidazo[4,5-c]pyridin-6-yl)amino)benzonitrile] | –
0.01 to 100 nM | – | 0.01 to 100 nM | 0.01 to 100 nM | 1 to 500 nM | CN(c1cc2c(cn1)ncn2C)c1ccc(C2CCN(S(C)(=O)=O)CC2)cc1OC(F)F [Compound 287, N-(2-(Difluoromethoxy)-4-(1-(methylsulfonyl)piperidin-4-yl)phenyl)-N,1-dimethyl-1H-imidazo[4,5-c]pyridin-6-amine] | –
0.01 to 100 nM | 1 to 500 nM | 0.01 to 100 nM | 101 to 500 nM | – | CCc1cc(C2=CCN(C(=O)[C@H](C)O)CC2)ccc1N(C)c1cc2c(cn1)ncn2C [Compound 251, (S)-1-(4-(3-ethyl-4-(methyl(1-methyl-1H-imidazo[4,5-c]pyridin-6-yl)amino)phenyl)-5,6-dihydropyridin-1(2H)-yl)-2-hydroxypropan-1-one] | –
0.01 to 100 nM | 1 to 500 nM | 0.01 to 100 nM | 101 to 500 nM | – | CCc1cc(-c2cnn(Cc3ccc(C)cc3)c2)ccc1N(C)c1cc2c(cn1)ncn2C [Compound 237, N-(2-ethyl-4-(1-(4-methylbenzyl)-1H-pyrazol-4-yl)phenyl)-N,1-dimethyl-1H-imidazo[4,5-c]pyridin-6-amine] | –
0.01 to 100 nM | > 1000 nM | 0.01 to 100 nM | 0.01 to 100 nM | – | CCc1cc(C2=CCN(C(=O)NC#N)CC2)ccc1N(C)c1cc2c(cn1)ncn2C [Compound 203, N-cyano-4-(3-ethyl-4-(methyl(1-methyl-1H-imidazo[4,5-c]pyridin-6-yl)amino)phenyl)-5,6-dihydropyridine-1(2H)-carboxamide] | –
0.01 to 100 nM | – | 0.01 to 100 nM | 101 to 500 nM | 501 to 1000 nM | CCc1cc(C2CCN(C(=O)C(C)O)CC2)ccc1N(C)c1cc2c(cn1)ncn2C (centres unmarked) [Compound 235, 1-(4-(3-ethyl-4-(methyl(1-methyl-1H-imidazo[4,5-c]pyridin-6-yl)amino)phenyl)piperidin-1-yl)-2-hydroxypropan-1-one] | –

Continued, compound first:

SMILES | IC50 [1] | IC50 [2, 5] | IC50 [3] | IC50 [4] | IC50 [2, 6] | IC50 ([2]; Homo sapiens, HeLa)
CCc1cc(CNC(=O)NC#N)ccc1N(C)c1cc2c(cn1)ncn2C [Compound 258, 1-{3-Ethyl-4-[methyl-(1-methyl-1H-imidazo[4,5-c]pyridin-6-yl)-amino]-benzyl}-3-cyano-urea] | 0.01 to 100 nM | – | 101 to 500 nM | 101 to 500 nM | – | > 1000 nM
CCc1cc(-c2noc(CC#N)n2)ccc1N(C)c1cc2c(cn1)ncn2C [Compound 148, 2-(3-(3-ethyl-4-(methyl(1-methyl-1H-imidazo[4,5-c]pyridin-6-yl)amino)phenyl)-1,2,4-oxadiazol-5-yl)acetonitrile] | 0.01 to 100 nM | 501 to 1000 nM | 0.01 to 100 nM | 501 to 1000 nM | – | –
CCc1cc(-c2cnc(N(C)C)nc2)ccc1N(C)c1cc2c(cn1)ncn2C [Compound 129, N-(4-(2-(dimethylamino)pyrimidin-5-yl)-2-ethylphenyl)-N,1-dimethyl-1H-imidazo[4,5-c]pyridin-6-amine] | 0.01 to 100 nM | > 1000 nM | 101 to 500 nM | > 1000 nM | – | –
CCc1cc(C2=CCN(C(=O)Nc3nncs3)CC2)ccc1N(C)c1cc2c(cn1)ncn2C [Compound 234, 4-(3-Ethyl-4-(methyl(1-methyl-1H-imidazo[4,5-c]pyridin-6-yl)amino)phenyl)-N-(1,3,4-thiadiazol-5-yl)-5,6-dihydropyridine-1(2H)-carboxamide] | 0.01 to 100 nM | – | 0.01 to 100 nM | 0.01 to 100 nM | – | 1 to 500 nM
CCc1cc(CN2CCOCC2)ccc1N(C)c1cc2c(cn1)ncn2C [Compound 142, N-(2-ethyl-4-(morpholinomethyl)phenyl)-N,1-dimethyl-1H-imidazo[4,5-c]pyridin-6-amine] | 0.01 to 100 nM | 501 to 1000 nM | 101 to 500 nM | > 1000 nM | – | –
CCc1cc(-c2noc(C)n2)ccc1N(C)c1cc2c(cn1)ncn2C [Compound 147, N-(2-ethyl-4-(5-methyl-1,2,4-oxadiazol-3-yl)phenyl)-N,1-dimethyl-1H-imidazo[4,5-c]pyridin-6-amine] | 0.01 to 100 nM | 501 to 1000 nM | 0.01 to 100 nM | > 1000 nM | – | –
CCc1cc(-c2ccccc2)ccc1N(C)c1cc2c(cn1)ncn2C [Compound 164, N-(3-ethylbiphenyl-4-yl)-N,1-dimethyl-1H-imidazo[4,5-c]pyridin-6-amine] | 0.01 to 100 nM | 501 to 1000 nM | 0.01 to 100 nM | 101 to 500 nM | – | –
CCc1cc(C2=CCN(C(=O)CCC#N)CC2)ccc1N(C)c1cc2c(cn1)ncn2C [Compound 196, 4-(4-(3-ethyl-4-(methyl(1-methyl-1H-imidazo[4,5-c]pyridin-6-yl)amino)phenyl)-5,6-dihydropyridin-1(2H)-yl)-4-oxobutanenitrile] | 0.01 to 100 nM | 501 to 1000 nM | 0.01 to 100 nM | 101 to 500 nM | – | –
CCNC(=O)N1CC=C(c2ccc(N(C)c3cc4c(cn3)ncn4C)c(CC)c2)CC1 [Compound 172, N-ethyl-4-(3-ethyl-4-(methyl(1-methyl-1H-imidazo[4,5-c]pyridin-6-yl)amino)phenyl)-5,6-dihydropyridine-1(2H)-carboxamide] | 0.01 to 100 nM | 1 to 500 nM | 0.01 to 100 nM | 101 to 500 nM | – | –
CCc1cc(-c2cnn(Cc3ccccc3)c2)ccc1N(C)c1cc2c(cn1)ncn2C [Compound 139, N-(4-(1-benzyl-1H-pyrazol-4-yl)-2-ethylphenyl)-N,1-dimethyl-1H-imidazo[4,5-c]pyridin-6-amine] | 0.01 to 100 nM | 501 to 1000 nM | 0.01 to 100 nM | 101 to 500 nM | – | –
CCc1cc(-c2ccc(O)nc2)ccc1N(C)c1cc2c(cn1)ncn2C [Compound 132, 5-(3-Ethyl-4-(methyl(1-methyl-1H-imidazo[4,5-c]pyridin-6-yl)amino)phenyl)pyridin-2-ol] | 0.01 to 100 nM | 501 to 1000 nM | 0.01 to 100 nM | 101 to 500 nM | – | –
CCc1cc(C2=CCN(C(=O)N(C)CC#N)CC2)ccc1N(C)c1cc2c(cn1)ncn2C [Compound 207, N-(Cyanomethyl)-4-(3-ethyl-4-(methyl(1-methyl-1H-imidazo[4,5-c]pyridin-6-yl)amino)phenyl)-N-methyl-5,6-dihydropyridine-1(2H)-carboxamide] | 0.01 to 100 nM | – | 0.01 to 100 nM | 101 to 500 nM | – | 501 to 1000 nM
CCc1cc(C(=O)NCCO)ccc1N(C)c1cc2c(cn1)ncn2C [Compound 160, 3-ethyl-N-(2-hydroxyethyl)-4-(methyl(1-methyl-1H-imidazo[4,5-c]pyridin-6-yl)amino)benzamide] | 0.01 to 100 nM | > 1000 nM | > 1000 nM | > 1000 nM | – | –
